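Where inhibition never reached the appropriate level, the endpoint shown equals the highest concentration tested. Otherwise, values were interpolated linearly from a five-concentration, 48-hour dose response in 96-well plates. TGI denotes the concentration required for complete inhibition of growth.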
Columns and labels:
Test in all cases: inhibition of tumour cell growth, NCI panel, 48 h
HOP-62 NSCLC = system: HOP-62 NSCLC
HOP-92 NSCLC = system: HOP-92 NSCLC
NCI-H522 lung = system: NCI-H522 lung
OVCAR-8 ovarian = system: OVCAR-8 ovarian
SK-OV-3 ovarian = system: SK-OV-3 ovarian
SNB-19 CNS = system: SNB-19 CNS
UACC-62 melanoma = system: UACC-62 melanoma
BT-549 breast = system: BT-549 breast
M14 melanoma = system: M14 melanoma
T-47D breast = system: T-47D breast

| Structure (SMILES) | TGI (HOP-62 NSCLC) [µM] | TGI (HOP-92 NSCLC) [µM] | TGI (NCI-H522 lung) [µM] | TGI (OVCAR-8 ovarian) [µM] | TGI (SK-OV-3 ovarian) [µM] | TGI (SNB-19 CNS) [µM] | TGI (UACC-62 melanoma) [µM] | TGI (BT-549 breast) [µM] | TGI (M14 melanoma) [µM] | TGI (T-47D breast) [µM] |
| --- | --- | --- | --- | --- | --- | --- | --- | --- | --- | --- |
| O=NN1C(c2ccccc2)C2CCCC(C2=O)C1c1ccccc1 (configuration not stated) | 56 | 55.6 | 46.4 | > 100 | 73.6 | > 92.5 | 59 |  |  |  |
| COc1ccc(C(=O)O[C@H]2CC[C@@]3(C)[C@@H]4CC[C@H]5[C@]6(O)C[C@H](O)[C@@]7(O)[C@@H](CN8C[C@@H](C)CC[C@H]8[C@@]7(C)O)[C@]6(O)C[C@@]53OC24O)cc1OC | > 100 | > 100 | > 100 | > 100 | > 100 | > 100 | > 100 | > 100 | > 100 | > 100 |
| Cc1cn(C2C=CC(COP(=O)(OCc3ccc([N+](=O)[O-])o3)N(C)CCCCCl)O2)c(=O)[nH]c1=O (configuration not stated) | 30.9 | 10.9 | 3.97 | 32.4 | 24 | 21.3 | 17.3 |  | 17.3 | 7.05 |
| COc1ccc(NC(=S)NNC(=O)c2nsc3ccccc23)cc1 | > 100 | 83.5 |  | > 100 |  | > 100 | 71.6 |  | 36.7 |  |
| Nc1c(OCC(=O)O)ccc2cc(S(=O)(=O)O)ccc12 | > 100 |  | > 100 | > 100 | > 100 | > 100 | > 100 | > 100 | > 100 | > 100 |
| c1cc(-c2ccc(-c3nc4ccc(C5=NCCN5)cc4s3)s2)ccc1C1=NCCN1 | 0.257 | 1.08 |  | 0.801 |  | 9.38 |  | 5.27 |  | 1.42 |
| O=C1C[C@H](COCc2ccccc2)NC(=O)C[C@H](COCc2ccccc2)NC(=O)C[C@H](COCc2ccccc2)N1 | > 100 | 35.4 | > 100 | > 100 | 57.3 | > 100 | > 100 | > 100 | > 100 | > 100 |
| CN(C)CCCNc1ccc2nnn3c4ccc(OC(=O)c5ccccc5)cc4c(=O)c1c23 | 20.9 | 39.2 | 10.5 | 39.8 | 42.9 | 25.4 | 29.6 | 32.7 | 28.3 | 37.5 |

— PubChem BioAssay (NCI)
